Test results taken from PubChem BioAssay AID2060612 (Molecular Pharmacology Branch, DTP, NCI, 2025).

System: 565232-114-T-J1-PDC complex spheroid viability
Assay: Anticancer human tumor 565232-114-T-J1-PDC patient-derived bladder carcinoma cell line growth inhibition [CLK]
Details: for IC50: curve of first compound; for viability, T/C: stronger effect = lower value; active means viability on the fitted dose curve at most 10% of control; inactive means the rest
Procedure, shortened: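 Multi-cell-type spheroids combined patient-derived tumor cells with HUVEC endothelial cells and human mesenchymal stem cells. Paired agents were dosed in half-log steps down from about clinical Cmax, or from 10 microM where Cmax was unknown.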

[1] = second compound 0.0316 µM, first compound 0.0316 µM
[2] = second compound 0.0316 µM, first compound 0.1 µM
[3] = second compound 0.1 µM, first compound 0.0316 µM
[4] = second compound 0.1 µM, first compound 0.1 µM
[5] = second compound 0.316 µM, first compound 0.0316 µM
[6] = second compound 0.316 µM, first compound 0.1 µM
[7] = second compound 1 µM, first compound 0.0316 µM
[8] = second compound 1 µM, first compound 0.1 µM
[9] = second compound 3.16 µM, first compound 0.0316 µM
[10] = second compound 3.16 µM, first compound 0.1 µM
[11] = second compound 10 µM, first compound 0.0316 µM
[12] = second compound 10 µM, first compound 0.1 µM
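Further: spheroids exposed to compounds for 7 days before readout.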
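Wherever viability, T/C is given: 100% = DMSO vehicle wells with luminescence normalized to vehicle control.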

C=CC(=O)Nc1cc(Nc2nccc(-c3cn(C)c4ccccc34)n2)c(OC)cc1N(C)CCN(C)C + CN1CCN(c2cc(C(=O)Nc3cc4cc(-c5cnn(C)c5)ccc4cn3)ccn2)CC1
> 300 nM: IC50 (second compound 0.0316 µM) | IC50 (second compound 0.1 µM)
< 0.949 nM: IC50 (second compound 0.316 µM) | IC50 (second compound 1 µM) | IC50 (second compound 3.16 µM) | IC50 (second compound 10 µM)
inactive: viability, T/C (second compound 0.0316 µM, first compound 0.000949 µM) 104% | viability, T/C (second compound 0.0316 µM, first compound 0.003 µM) 95.3% | viability, T/C (second compound 0.0316 µM, first compound 0.00949 µM) 106% | viability, T/C (second compound 0.0316 µM, first compound 0.03 µM) 84.1% | viability, T/C (second compound 0.0316 µM, first compound 0.0949 µM) 90.6% | viability, T/C (second compound 0.0316 µM, first compound 0.3 µM) 83.7% | viability, T/C (second compound 0.1 µM, first compound 0.000949 µM) 97.5% | viability, T/C (second compound 0.1 µM, first compound 0.003 µM) 85.8% | viability, T/C (second compound 0.1 µM, first compound 0.00949 µM) 110% | viability, T/C (second compound 0.1 µM, first compound 0.03 µM) 89.3% | viability, T/C (second compound 0.1 µM, first compound 0.0949 µM) 97.9% | viability, T/C (second compound 0.1 µM, first compound 0.3 µM) 94.5% | viability, T/C (second compound 0.316 µM, first compound 0.000949 µM) 14.9% | viability, T/C (second compound 0.316 µM, first compound 0.003 µM) 20.3% | viability, T/C (second compound 0.316 µM, first compound 0.00949 µM) 20.1% | viability, T/C (second compound 0.316 µM, first compound 0.03 µM) 20.5% | viability, T/C (second compound 0.316 µM, first compound 0.0949 µM) 18.7% | viability, T/C (second compound 0.316 µM, first compound 0.3 µM) 18.3%
active: viability, T/C (second compound 1 µM, first compound 0.000949 µM) 0.2% | viability, T/C (second compound 1 µM, first compound 0.003 µM) 0.26% | viability, T/C (second compound 1 µM, first compound 0.00949 µM) 1.8% | viability, T/C (second compound 1 µM, first compound 0.03 µM) 0.2% | viability, T/C (second compound 1 µM, first compound 0.0949 µM) 0.2% | viability, T/C (second compound 1 µM, first compound 0.3 µM) 1.48% | viability, T/C (second compound 3.16 µM, first compound 0.000949 µM) 0.23% | viability, T/C (second compound 3.16 µM, first compound 0.003 µM) 0.22% | viability, T/C (second compound 3.16 µM, first compound 0.00949 µM) 1.48% | viability, T/C (second compound 3.16 µM, first compound 0.03 µM) 0.22% | viability, T/C (second compound 3.16 µM, first compound 0.0949 µM) 0.91% | viability, T/C (second compound 3.16 µM, first compound 0.3 µM) 0.82% | viability, T/C (second compound 10 µM, first compound 0.000949 µM) 0.23% | viability, T/C (second compound 10 µM, first compound 0.003 µM) 0.26% | viability, T/C (second compound 10 µM, first compound 0.00949 µM) 1.25% | viability, T/C (second compound 10 µM, first compound 0.03 µM) 1.11% | viability, T/C (second compound 10 µM, first compound 0.0949 µM) 1.9% | viability, T/C (second compound 10 µM, first compound 0.3 µM) 1.19%

O=c1[nH]cc(F)c(=O)[nH]1 + CN1CCN(c2cc(C(=O)Nc3cc4cc(-c5cnn(C)c5)ccc4cn3)ccn2)CC1
active: viability, T/C [7] 0.2% | viability, T/C [8] 0.42% | viability, T/C (second compound 1 µM, first compound 0.316 µM) 0.17% | viability, T/C (second compound 1 µM, first compound 1 µM) 0.16% | viability, T/C (second compound 1 µM, first compound 3.16 µM) 1.57% | viability, T/C (second compound 1 µM, first compound 10 µM) 0.22% | viability, T/C [9] 0.2% | viability, T/C [10] 0.14% | viability, T/C (second compound 3.16 µM, first compound 0.316 µM) 1.23% | viability, T/C (second compound 3.16 µM, first compound 1 µM) 0.14% | viability, T/C (second compound 3.16 µM, first compound 3.16 µM) 1.73% | viability, T/C (second compound 3.16 µM, first compound 10 µM) 1.38% | viability, T/C [11] 0.13% | viability, T/C [12] 0.29% | viability, T/C (second compound 10 µM, first compound 0.316 µM) 0.25% | viability, T/C (second compound 10 µM, first compound 1 µM) 0.15% | viability, T/C (second compound 10 µM, first compound 3.16 µM) 0.19% | viability, T/C (second compound 10 µM, first compound 10 µM) 1.01%
< 31.6 nM: IC50 (second compound 0.316 µM) | IC50 (second compound 1 µM) | IC50 (second compound 3.16 µM) | IC50 (second compound 10 µM)
inactive: viability, T/C [1] 95.6% | viability, T/C [2] 77.4% | viability, T/C (second compound 0.0316 µM, first compound 0.316 µM) 105% | viability, T/C (second compound 0.0316 µM, first compound 1 µM) 106% | viability, T/C (second compound 0.0316 µM, first compound 3.16 µM) 123% | viability, T/C (second compound 0.0316 µM, first compound 10 µM) 113% | viability, T/C [3] 90.5% | viability, T/C [4] 83.1% | viability, T/C (second compound 0.1 µM, first compound 0.316 µM) 101% | viability, T/C (second compound 0.1 µM, first compound 1 µM) 130% | viability, T/C (second compound 0.1 µM, first compound 3.16 µM) 171% | viability, T/C (second compound 0.1 µM, first compound 10 µM) 120% | viability, T/C [5] 16.8% | viability, T/C [6] 18.7% | viability, T/C (second compound 0.316 µM, first compound 0.316 µM) 22.1% | viability, T/C (second compound 0.316 µM, first compound 1 µM) 22.7% | viability, T/C (second compound 0.316 µM, first compound 3.16 µM) 19.2% | viability, T/C (second compound 0.316 µM, first compound 10 µM) 17.1%
> 10000 nM: IC50 (second compound 0.0316 µM) | IC50 (second compound 0.1 µM)

Cn1ncnc1[C@H]1c2n[nH]c(=O)c3cc(F)cc(c23)N[C@@H]1c1ccc(F)cc1 + CNC(=O)c1ccc(Nc2nc(OC3CCCC3)c3c(-c4ccc5nc(C)oc5c4)c[nH]c3n2)c(OC)c1
inactive: viability, T/C (second compound 0.0316 µM, first compound 0.000316 µM) 107% | viability, T/C (second compound 0.0316 µM, first compound 0.001 µM) 81.8% | viability, T/C (second compound 0.0316 µM, first compound 0.00316 µM) 94.9% | viability, T/C (second compound 0.0316 µM, first compound 0.01 µM) 95% | viability, T/C [1] 84.8% | viability, T/C [2] 53.2% | viability, T/C (second compound 0.1 µM, first compound 0.000316 µM) 50% | viability, T/C (second compound 0.1 µM, first compound 0.001 µM) 44.4% | viability, T/C (second compound 0.1 µM, first compound 0.00316 µM) 53.3% | viability, T/C (second compound 0.1 µM, first compound 0.01 µM) 43.6% | viability, T/C [3] 34.7% | viability, T/C [4] 23.3% | viability, T/C (second compound 0.316 µM, first compound 0.000316 µM) 31.4% | viability, T/C (second compound 0.316 µM, first compound 0.001 µM) 29.8% | viability, T/C (second compound 0.316 µM, first compound 0.00316 µM) 30.4% | viability, T/C (second compound 0.316 µM, first compound 0.01 µM) 26.4% | viability, T/C [5] 25.7% | viability, T/C [6] 15.4% | viability, T/C (second compound 1 µM, first compound 0.000316 µM) 21.9% | viability, T/C (second compound 1 µM, first compound 0.001 µM) 22.3% | viability, T/C (second compound 1 µM, first compound 0.00316 µM) 20% | viability, T/C (second compound 1 µM, first compound 0.01 µM) 16.9% | viability, T/C [7] 22.2% | viability, T/C [8] 15.7% | viability, T/C (second compound 3.16 µM, first compound 0.000316 µM) 12.3% | viability, T/C (second compound 3.16 µM, first compound 0.001 µM) 20.6% | viability, T/C (second compound 3.16 µM, first compound 0.00316 µM) 18.7% | viability, T/C (second compound 3.16 µM, first compound 0.01 µM) 16.4% | viability, T/C [9] 20.2% | viability, T/C [10] 12.4% | viability, T/C (second compound 10 µM, first compound 0.000316 µM) 20.4% | viability, T/C (second compound 10 µM, first compound 0.001 µM) 16.1% | viability, T/C (second compound 10 µM, first compound 0.00316 µM) 20.3% | viability, T/C (second compound 10 µM, first compound 0.01 µM) 19.5% | viability, T/C [11] 17.8% | viability, T/C [12] 11.4%
> 100 nM: IC50 (second compound 0.0316 µM)
< 0.316 nM: IC50 (second compound 0.1 µM) | IC50 (second compound 0.316 µM) | IC50 (second compound 1 µM) | IC50 (second compound 3.16 µM) | IC50 (second compound 10 µM)
